What follows are molecules tested on female mice of the C57BL/6J strain (assay: Lowering of serum cholesterol level in mice subjected to a fatty diet (single dose)). Conditions: total serum cholesterol; female C57BL/6J mice on fatty diet (1.25% cholesterol, 0.5% cholic acid); single dose 100 mg/kg by tubage, suspension in 3% aqueous gum.
Format: in vivo
Experimental: The antiatheromatous activity of the compounds according to the invention was evaluated as a function of their ability to lower the serum cholesterol level in mice subjected to a fatty diet. […] This correlation affords a test which is more rapid than direct experiments on the atheromatous plaque, which require a lengthy treatment of the animals and an expensive histological study of the walls of the aortic arch.
The test used consists in administering a single dose of the compound to female mice of the C57BL/6J strain. The protocol is as follows: On the first day (D0), the mice are fasted from 9 am to 5 pm, a blood sample being taken at 2 pm. At 5 pm, a given amount of food (a fatty diet comprising 1.25% of cholesterol and 0.5% of cholic acid) is distributed. On the second day (D1), the food leftovers are weighed at 9 am and the mice are fasted from 9 am to 2 pm. A blood sample is taken at 2 pm. For the treated groups of mice, the compound is administered at 9 am on the second day (D1) by tubage in the form of a suspension in a 3% aqueous solution of gum. The control groups receive only the aqueous gum.
The compounds were tested at a dose of 100 mg/kg. The total serum cholesterol is assayed and the results are expressed as the percentage inhibition of the increase in cholesterolemia compared with the control group.
For CC(=O)OC[C@H]1O[C@H](Oc2ccc(C(=O)c3ccc(C#N)cc3)cc2)[C@@H](OC(C)=O)[C@@H](OC(C)=O)[C@@H]1OC(C)=O [Example 3, [4-(4-Cyanobenzoyl)phenyl]2,3,4,6-tetra-O-acetyl-α-D-mannopyranoside], the “Activity (%): percentage inhibition of the increase in cholesterolemia compared with the control group” value was −10%. In the case of CC(=O)OC[C@H]1O[C@H](Oc2ccc(C(=O)c3ccc(C#N)cc3)cc2)[C@H](OC(C)=O)[C@@H](OC(C)=O)[C@@H]1OC(C)=O [Example 1, [4-(4-Cyanobenzoyl)phenyl]2,3,4,6-tetra-O-acetyl-α-D-glucopyranoside], the “Activity (%): percentage inhibition of the increase in cholesterolemia compared with the control group” value is reported as −27%. N#Cc1ccc(C(=O)c2ccc(O[C@H]3OC[C@@H](O)[C@@H](O)[C@@H]3O)cc2)cc1 [Example 8, [4-(4-Cyanobenzoyl)phenyl]α-D-arabinopyranoside] was tested, and the “Activity (%): percentage inhibition of the increase in cholesterolemia compared with the control group” value was −29%. In the case of CC(=O)OC[C@H]1O[C@H](Oc2ccc(C(=O)c3ccc(C#N)cc3)cc2)[C@H](OC(C)=O)[C@@H](OC(C)=O)[C@H]1OC(C)=O [Example 5, [4-(4-Cyanobenzoyl)phenyl]2,3,4,6-tetra-O-acetyl-α-D-galactopyranoside], the “Activity (%): percentage inhibition of the increase in cholesterolemia compared with the control group” value is reported as −32%. In the case of N#Cc1ccc(C(=O)c2ccc(O[C@H]3OC[C@@H](O)[C@@H](O)[C@H]3O)cc2)cc1 [Example 11, [4-(4-Cyanobenzoyl)phenyl]α-D-ribopyranoside], the “Activity (%): percentage inhibition of the increase in cholesterolemia compared with the control group” value is reported as −26%. N#Cc1ccc(C(=O)c2ccc(O[C@H]3O[C@H](CO)[C@@H](O)[C@H](O)[C@H]3O)cc2)cc1 [Example 2, [4-(4-Cyanobenzoyl)phenyl]α-D-glucopyranoside] was tested, and the “Activity (%): percentage inhibition of the increase in cholesterolemia compared with the control group” value was −23%. In the case of CC(=O)O[C@@H]1[C@@H](Oc2ccc(C(=O)c3ccc(C#N)cc3)cc2)OC[C@@H](OC(C)=O)[C@H]1OC(C)=O [Example 7, [4-(4-Cyanobenzoyl)phenyl]2,3,4-tri-O-acetyl-α-D-arabinopyranoside], the “Activity (%): percentage inhibition of the increase in cholesterolemia compared with the control group” value is reported as −25%. N#Cc1ccc(C(=O)c2ccc(O[C@H]3OC[C@@H](O)[C@H](O)[C@@H]3O)cc2)cc1 [Example 10, [4-(4-Cyanobenzoyl)phenyl]α-D-lyxopyranoside] was tested, and the “Activity (%): percentage inhibition of the increase in cholesterolemia compared with the control group” value was −48%. With N#Cc1ccc(C(=O)c2ccc(O[C@H]3O[C@H](CO)[C@H](O)[C@H](O)[C@H]3O)cc2)cc1 [Example 6, [4-(4-Cyanobenzoyl)phenyl]α-D-galactopyranoside] the “Activity (%): percentage inhibition of the increase in cholesterolemia compared with the control group” value was −35%. With N#Cc1ccc(C(=O)c2ccc(O[C@H]3O[C@H](CO)[C@@H](O)[C@H](O)[C@@H]3O)cc2)cc1 [Example 4, [4-(4-Cyanobenzoyl)phenyl]α-D-mannopyranoside] the “Activity (%): percentage inhibition of the increase in cholesterolemia compared with the control group” value was −38%.
